Data: the supplement of paper PMC10790783
Counter-ions that a name gives are not always drawn.

System: MRC5-hT fibroblasts expressing HCMV UL38 (glucose-free medium)
Assay: rescue of cell number (AUC of dose-response) relative to untreated glucose-free control; higher = stronger protection from glucose-starvation-induced cell death
Details: glucose: 0 (glucose-free DMEM); 96 h; dose range 0.001-20, 10-point curve µM
Experimental: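 MRC5-hT fibroblasts stably expressing HCMV UL38 were seeded in 384-well plates, serum-starved for 24 h, switched to glucose-free DMEM, and pin-transferred with a metabolism-focused compound library as 10-point dose curves (1 nM to 20 µM; n=2). Nuclei were counted by Hoechst imaging 96 h after glucose withdrawal.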

Row | Compound | rescue of cell number [%]
1 | CCN(CC)Cc1ccc(C(=O)N(CCc2ccccc2OC)[C@@H]2CCNC2)cc1 | 63.9
2 | COc1cccc2c(NCc3ccccc3)nc(-n3c(N)nc4ccccc43)nc12 [ML240] | 57.1
3 | CC(C)(C)c1ccc(S(=O)(=O)NCc2ccc(C(=O)Nc3cccnc3)cc2)cc1 [STF_31] | 26.1
4 | CC(=O)Oc1ccccc1C(=O)O [Aspirin] | 25.2
5 | Clc1ccc(C(c2ccccc2Cl)C(Cl)Cl)cc1 (stereo unspecified) [Mitotane] | 9.97
6 | S=c1[nH]cnc2nc[nH]c12 [Mercaptopurine] | -32.1
7 | CCCCCCCCCCC[C@@H](C[C@@H]1OC(=O)[C@H]1CCCCCC)OC(=O)[C@H](CC(C)C)NC=O [Orlistat] | -10.4
8 | c1cc(-c2cnn3cc(-c4ccc(OCCN5CCCCC5)cc4)cnc23)ccn1 [Dorsomorphin] | 66.2
9 | Nc1nc(=S)c2[nH]cnc2[nH]1 [6_Thioguanine] | 42.9
10 | OC[C@H]1O[C@@H](n2cnc3c2N=CNC[C@H]3O)C[C@@H]1O [Pentostatin] | -17.8
11 | O=C(O)[C@@]1(CCCCCCOc2ccc(Cl)cc2)CO1 [(R)_(+)_Etomoxir_sodium_salt] | 17.7
12 | O=c1cnn([C@@H]2O[C@H](CO)[C@@H](O)[C@H]2O)c(=O)[nH]1 [6_Azauridine] | -34.1
13 | NS(=O)(=O)c1cc(C(=O)O)c(NCc2ccco2)cc1Cl [Furosemide] | -15.9
14 | O=C1N[C@@H]2[C@@H](O)[C@@H](O)[C@H](O)[C@@H](CO)N2C1=O [Kifunensine] | 123
15 | CC(=O)c1c(O)c(C)c(O)c(Cc2c(O)c3c(c(C(=O)/C=C/c4ccccc4)c2O)OC(C)(C)C=C3)c1O [Rottlerin] | 24.6
16 | COc1cc(O)c(CC=C(C)C)c(O)c1C(=O)/C=C/c1ccc(O)cc1 [Xanthohumol] | 15.1
17 | N#CC(CCCN1CCN(/N=C/c2cccnc2)CC1)(c1ccccc1)c1ccccc1 | 99.9
18 | CC(=O)O[C@H]1C(=O)[C@@]2(C)[C@H]([C@H](OC(=O)c3ccccc3)[C@]3(O)C[C@H](OC(=O)[C@H](O)[C@@H](NC(=O)c4ccccc4)c4ccccc4)C(C)=C1C3(C)C)[C@]1(OC(C)=O)CO[C@@H]1C[C@@H]2O [Taxol] | 21.5
19 | OC[C@H]1NC[C@H](O)[C@@H](O)[C@@H]1O [1_Deoxynojirimycin] | 5.66
20 | CCN(CC)C(=S)SSC(=S)N(CC)CC [Disulfiram] | 113
21 | CNCCC(Oc1ccc(C(F)(F)F)cc1)c1ccccc1 (stereo unspecified) [Fluoxetine] | 47

Row | Compound | rescue of cell number [%]
22 | Cc1cnc(Nc2ccc(OCCN3CCCC3)cc2)nc1Nc1cccc(S(=O)(=O)NC(C)(C)C)c1 [Fedratinib] | 40.7
23 | CC(C)=CCC1=C(O)C(=O)c2ccccc2C1=O [Lapachol] | 57.7
24 | COc1cc(/C=C/C(=O)N2CCC=CC2=O)cc(OC)c1OC [Piperlongumine] | 36.8
25 | O=C(O)CCCCC(CCSCc1ccccc1)SCc1ccccc1 (stereo unspecified) [CPI-613] | 28.9
26 | O=C(O)c1nn(Cc2ccc(Cl)cc2Cl)c2ccccc12 [Lonidamine] | -29
27 | C[C@H]1[C@H](OC(=O)CCC(=O)O)O[C@@H]2O[C@@]3(C)CC[C@H]4[C@H](C)CC[C@@H]1[C@@]24OO3 [Artesunate] | 9.86
28 | Nc1nc2c(c(=O)[nH]1)C[C@@H](CCc1ccc(C(=O)N[C@@H](CCC(=O)O)C(=O)O)cc1)CN2 [Lometrexol] | -30.2
29 | Nc1cccc(S(=O)(=O)N2CCCN(S(=O)(=O)c3ccc4c(c3)OCCO4)CC2)c1 [DASA-58] | 68
30 | Cc1cn[nH]c1 [Fomepizole] | 81.1
31 | NOCC[C@H](N)C(=O)O [L_Canaline] | 68
32 | CC(C)c1nc(N(C)S(C)(=O)=O)nc(-c2ccc(F)cc2)c1/C=C/[C@@H](O)C[C@@H](O)CC(=O)O [Rosuvastatin] | 45.3
33 | CCCCCCCCc1ccc(CCC(N)(CO)CO)cc1 [Fingolimod] | -1.64
34 | Cc1c(-c2ccc(-c3ccccc3F)cc2)nc2ccc(F)cc2c1C(=O)O [Brequinar] | 126
35 | CCCCC[C@H](CC(=O)NO)C(=O)N[C@H](C(=O)N1CCC[C@H]1CO)C(C)C [Actinonin] | -1.46
36 | CC1=C(/C=C/C(C)=C/C=C/C(C)=C/C(=O)Nc2ccc(O)cc2)C(C)(C)CCC1 [Fenretinide] | 12.2
37 | COc1c(O)cc2oc(-c3ccc(O)cc3)cc(=O)c2c1O [Hispidulin] | 145
38 | CCCCCCCCCCCCCCCCOc1nc2ccc(C)cc2c(=O)o1 [Cetilistat] | -5.21
39 | Cc1c(O)c(=O)ccn1C [Deferiprone] | 25.4
40 | COC(=O)/C=C/C(=O)OC [Dimethyl fumarate] | 67.2
41 | CC(C)(C)NC(=O)[C@H]1CC[C@H]2[C@@H]3CC[C@H]4NC(=O)C=C[C@]4(C)[C@H]3CC[C@]12C [Finasteride] | -38.3
42 | O=C(O)C[C@@]1(O)C[C@@H](CCCCCCc2ccc(Cl)cc2Cl)OC1=O | 45.4

Row | Compound | rescue of cell number [%]
43 | CCCc1cc(-c2nc(-c3ccc(C)cc3)cs2)ccn1 [Fatostatin_A] | 76.5
44 | Cc1[nH]nc(C(F)(F)F)c1Cc1sc2c(c1C(=O)N1C[C@](C)(O)CO1)c(=O)n(C)c(=O)n2C(C)C [AZD3965] | 0.308
45 | CN(C)CC[C@H](CSc1ccccc1)Nc1ccc(S(=O)(=O)NC(=O)c2ccc(N3CCN(Cc4ccccc4-c4ccc(Cl)cc4)CC3)cc2)cc1[N+](=O)[O-] [ABT_737] | -33.6
46 | NC(=O)NO [Hydroxyurea] | 61.6
47 | CC1(C)C(N(O)C(=O)Nc2ccc(Cl)cc2)N(c2ccc(Cl)cc2)C(=O)N1CC(=O)NN=CC=Cc1ccc([N+](=O)[O-])o1 (stereo unspecified) [Eeyarestatin_I] | 11.4
48 | COP(=O)(CCC(N)C(=O)O)Oc1cccc(CC(=O)O)c1 (stereo unspecified) [GGsTop] | -24
49 | CC(=O)N1CCN(c2ccc(OCC3COC(Cn4ccnc4)(c4ccc(Cl)cc4Cl)O3)cc2)CC1 (stereo unspecified) [Ketoconazole] | -8.71
50 | Cc1n[nH]c(C)c1Cc1sc2c(c1C(=O)N1C[C@H](O)CO1)c(=O)n(C)c(=O)n2CC(C)C | 78.9
51 | CCOC(=O)c1ccc(-c2ccc(OC(=O)N(C)Cc3cccc(-c4ccncc4)c3)cc2)cc1 [WWL_113] | -23.8
52 | O=C(O)c1ccccc1SC1=NS(=O)(=O)c2ccccc21 | -13.9
53 | O=c1cc(-c2ccc(O)cc2)oc2cc(O)cc(O)c12 [Apigenin] | 58
54 | O=C(N[C@H](CO)[C@H](O)c1ccc([N+](=O)[O-])cc1)C(Cl)Cl [Chloramphenicol] | -10.7
55 | CC(C)(C#N)c1cc(Cn2cncn2)cc(C(C)(C)C#N)c1 [Anastrozole] | 29.4
56 | C[S+]([O-])CCCCN=C=S (stereo unspecified) [Sulforaphane] | -10.7
57 | CCCCCC[C@H]1C(=O)O[C@H](C)[C@H](NC(=O)c2cccc(NC=O)c2O)C(=O)O[C@@H](C)[C@@H]1OC(=O)CC(C)C [Antimycin_A] | -7.1
58 | OC(c1cc(C(F)(F)F)nc2c(C(F)(F)F)cccc12)C1CCCCN1 (stereo unspecified) [Mefloquine] | -12
59 | CC1=CC(=O)c2ccccc2C1=O [Menadione] | 23.5
60 | CCC(C)N(C)C(=O)c1cc2ccccc2c(-c2ccccc2Cl)n1 (stereo unspecified) | 15.2
61 | Cc1cccc(CC(=O)N2CCc3c2ccc(-c2cn(C)c4ncnc(N)c24)c3F)n1 | 70.7
